“And” between values parts separate entries of the source, which are not always exact repeats. Equal values may be shown once. ± gives the expanded uncertainty stated by the source.
Conditions: Fluid (supercritical or subcritical phases), Hot wire method

[He] [helium]
Conditions	thermal conductivity
323.19 K, 5030 kPa	0.1676 ± 0.0038 W/m/K
323.19 K, 10055 kPa	0.1696 ± 0.0038 W/m/K and 0.1695 ± 0.0038 W/m/K and 0.1694 ± 0.0038 W/m/K
323.19 K, 29885 kPa	0.1784 ± 0.004 W/m/K and 0.1786 ± 0.004 W/m/K
323.19 K, 29886 kPa	0.1782 ± 0.004 W/m/K
323.19 K, 29887 kPa	0.1783 ± 0.004 W/m/K
323.2 K, 5030 kPa	0.1674 ± 0.0038 W/m/K and 0.1675 ± 0.0038 W/m/K and 0.1677 ± 0.0038 W/m/K
323.21 K, 50067 kPa	0.187 ± 0.0042 W/m/K
323.21 K, 50070 kPa	0.1872 ± 0.0042 W/m/K
323.21 K, 50072 kPa	0.1872 ± 0.0042 W/m/K
323.21 K, 50075 kPa	0.187 ± 0.0042 W/m/K
323.21 K, 70102 kPa	0.196 ± 0.0044 W/m/K
323.21 K, 70105 kPa	0.196 ± 0.0044 W/m/K
323.21 K, 70109 kPa	0.1961 ± 0.0044 W/m/K
323.21 K, 70112 kPa	0.1964 ± 0.0044 W/m/K
323.21 K, 98251 kPa	0.2089 ± 0.0047 W/m/K
323.21 K, 98254 kPa	0.2085 ± 0.0047 W/m/K
323.21 K, 98259 kPa	0.2085 ± 0.0047 W/m/K
323.21 K, 98263 kPa	0.2086 ± 0.0047 W/m/K
373.22 K, 5137 kPa	0.1853 ± 0.0042 W/m/K
373.22 K, 30213 kPa	0.1948 ± 0.0044 W/m/K
373.22 K, 30214 kPa	0.1948 ± 0.0044 W/m/K and 0.1945 ± 0.0044 W/m/K
373.22 K, 49990 kPa	0.2028 ± 0.0045 W/m/K
373.22 K, 49992 kPa	0.2028 ± 0.0045 W/m/K
373.22 K, 49994 kPa	0.2033 ± 0.0046 W/m/K
373.23 K, 5137 kPa	0.185 ± 0.0042 W/m/K and 0.1845 ± 0.0041 W/m/K
373.23 K, 10114 kPa	0.1866 ± 0.0042 W/m/K and 0.1868 ± 0.0042 W/m/K
373.23 K, 69936 kPa	0.2139 ± 0.0048 W/m/K and 0.2138 ± 0.0048 W/m/K
373.23 K, 69937 kPa	0.214 ± 0.0048 W/m/K
373.23 K, 97514 kPa	0.2284 ± 0.0051 W/m/K
373.23 K, 97516 kPa	0.2277 ± 0.0051 W/m/K
373.23 K, 97527 kPa	0.2275 ± 0.0051 W/m/K
473.27 K, 5260 kPa	0.2166 ± 0.0049 W/m/K
473.27 K, 5261 kPa	0.2169 ± 0.0049 W/m/K
473.27 K, 10172 kPa	0.2187 ± 0.0049 W/m/K and 0.2183 ± 0.0049 W/m/K
473.27 K, 10173 kPa	0.2193 ± 0.0049 W/m/K
473.27 K, 50076 kPa	0.2321 ± 0.0052 W/m/K
473.27 K, 50078 kPa	0.2322 ± 0.0052 W/m/K
473.27 K, 50080 kPa	0.2317 ± 0.0052 W/m/K
473.27 K, 70131 kPa	0.2428 ± 0.0054 W/m/K
473.27 K, 70135 kPa	0.2422 ± 0.0054 W/m/K
473.27 K, 70138 kPa	0.2419 ± 0.0054 W/m/K
473.27 K, 99148 kPa	0.2558 ± 0.0057 W/m/K
473.27 K, 99151 kPa	0.2549 ± 0.0057 W/m/K
473.27 K, 99156 kPa	0.2552 ± 0.0057 W/m/K
473.28 K, 5261 kPa	0.2173 ± 0.0049 W/m/K
473.28 K, 30084 kPa	0.2252 ± 0.005 W/m/K
473.28 K, 30085 kPa	0.2251 ± 0.005 W/m/K and 0.226 ± 0.0051 W/m/K
473.29 K, 99160 kPa	0.2472 ± 0.0055 W/m/K
573.24 K, 30146 kPa	0.2549 ± 0.0057 W/m/K
573.24 K, 50100 kPa	0.2618 ± 0.0059 W/m/K
573.24 K, 70129 kPa	0.2675 ± 0.006 W/m/K
573.24 K, 97066 kPa	0.2798 ± 0.0063 W/m/K
573.24 K, 97071 kPa	0.2805 ± 0.0063 W/m/K
573.24 K, 97072 kPa	0.2792 ± 0.0063 W/m/K
573.25 K, 5197 kPa	0.2478 ± 0.0056 W/m/K
573.25 K, 5199 kPa	0.2472 ± 0.0055 W/m/K
573.25 K, 5200 kPa	0.2477 ± 0.0055 W/m/K
573.25 K, 10292 kPa	0.2503 ± 0.0056 W/m/K
573.25 K, 10294 kPa	0.2496 ± 0.0056 W/m/K
573.25 K, 10295 kPa	0.2496 ± 0.0056 W/m/K
573.25 K, 30146 kPa	0.2552 ± 0.0057 W/m/K
573.25 K, 30149 kPa	0.2558 ± 0.0057 W/m/K
573.25 K, 50095 kPa	0.2609 ± 0.0058 W/m/K
573.25 K, 50100 kPa	0.2599 ± 0.0058 W/m/K
573.25 K, 70160 kPa	0.268 ± 0.006 W/m/K
573.25 K, 70165 kPa	0.2662 ± 0.006 W/m/K
672.87 K, 98224 kPa	0.3057 ± 0.0068 W/m/K
672.87 K, 98230 kPa	0.3055 ± 0.0068 W/m/K
672.87 K, 98231 kPa	0.3054 ± 0.0068 W/m/K
672.88 K, 30064 kPa	0.2852 ± 0.0064 W/m/K
672.88 K, 30085 kPa	0.2823 ± 0.0063 W/m/K
672.88 K, 50184 kPa	0.2882 ± 0.0065 W/m/K
672.88 K, 70068 kPa	0.293 ± 0.0066 W/m/K
672.88 K, 70074 kPa	0.2949 ± 0.0066 W/m/K
672.88 K, 70081 kPa	0.2948 ± 0.0066 W/m/K
672.89 K, 5417 kPa	0.2774 ± 0.0062 W/m/K
672.89 K, 10409 kPa	0.2788 ± 0.0062 W/m/K
672.89 K, 10412 kPa	0.279 ± 0.0062 W/m/K
672.89 K, 10414 kPa	0.2784 ± 0.0062 W/m/K
672.89 K, 30054 kPa	0.2843 ± 0.0064 W/m/K
672.89 K, 50178 kPa	0.2895 ± 0.0065 W/m/K
672.89 K, 50182 kPa	0.2888 ± 0.0065 W/m/K
672.9 K, 5413 kPa	0.2765 ± 0.0062 W/m/K
672.9 K, 5416 kPa	0.277 ± 0.0062 W/m/K
771.89 K, 50118 kPa	0.3162 ± 0.0071 W/m/K
771.89 K, 50125 kPa	0.3184 ± 0.0071 W/m/K
771.89 K, 50128 kPa	0.3182 ± 0.0071 W/m/K
771.89 K, 70299 kPa	0.3237 ± 0.0072 W/m/K
771.89 K, 70303 kPa	0.3173 ± 0.0071 W/m/K
771.89 K, 70305 kPa	0.3224 ± 0.0072 W/m/K
771.89 K, 99452 kPa	0.3302 ± 0.0074 W/m/K
771.89 K, 99460 kPa	0.3299 ± 0.0074 W/m/K
771.89 K, 99462 kPa	0.3321 ± 0.0074 W/m/K
771.9 K, 30345 kPa	0.3126 ± 0.007 W/m/K
771.9 K, 30348 kPa	0.3102 ± 0.0069 W/m/K
771.9 K, 30350 kPa	0.313 ± 0.007 W/m/K
771.91 K, 10197 kPa	0.3094 ± 0.0069 W/m/K
771.91 K, 10199 kPa	0.3093 ± 0.0069 W/m/K
771.92 K, 5204 kPa	0.3065 ± 0.0069 W/m/K
771.93 K, 3005 kPa	0.3046 ± 0.0068 W/m/K
771.93 K, 3008 kPa	0.3049 ± 0.0068 W/m/K
771.93 K, 5202 kPa	0.3079 ± 0.0069 W/m/K
771.94 K, 1059 kPa	0.2998 ± 0.0067 W/m/K
771.94 K, 1068 kPa	0.3028 ± 0.0068 W/m/K
771.94 K, 1071 kPa	0.3022 ± 0.0068 W/m/K
771.94 K, 1074 kPa	0.304 ± 0.0068 W/m/K
771.94 K, 3001 kPa	0.3012 ± 0.0067 W/m/K
771.94 K, 3003 kPa	0.3055 ± 0.0068 W/m/K

From the NIST ThermoML archive (doi:10.1007/s10765-011-1052-5)
